Structures are written as SMILES. Structures can show the parent of a compound that is named as a salt. A value given as a limit tells only on which side of the number the result lay.

One assay concerns the target human LSD1(172-833) (Homo sapiens (Human), UniProt O60341). Kind of assay: Measurement of LSD1 inhibitory activity (time-resolved fluorescence, biotin-histone H3 mono methylated K4 peptide). It counts as biochemical. An outline of the steps: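 Remaining signal detected by TR-FRET after 60 min with europium anti-histone H3 antibody and streptavidin-XL665 in potassium fluoride/0.1% BSA.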

The target in another assay is MAO-A enzyme (Homo sapiens (Human), UniProt P21397). The assay is described as follows: Measurement of MAO-A inhibitory activity (MAO-Glo Assay). The assay is classed as biochemical.
For the next assay, the target named is MAO-B enzyme (Homo sapiens (Human), UniProt P27338). The assay is described as follows: Measurement of MAO-B inhibitory activity (MAO-Glo Assay).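 Note: luminescence read-out, compound preincubated 10 min with enzyme then reacted 60 min at room temperature, inhibition relative to enzyme reaction without compound, blank lacking enzyme and compound.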 The settings on record: read-out: MAO-B IC50 value.
Chain of MAO-B enzyme (P27338 whole entry): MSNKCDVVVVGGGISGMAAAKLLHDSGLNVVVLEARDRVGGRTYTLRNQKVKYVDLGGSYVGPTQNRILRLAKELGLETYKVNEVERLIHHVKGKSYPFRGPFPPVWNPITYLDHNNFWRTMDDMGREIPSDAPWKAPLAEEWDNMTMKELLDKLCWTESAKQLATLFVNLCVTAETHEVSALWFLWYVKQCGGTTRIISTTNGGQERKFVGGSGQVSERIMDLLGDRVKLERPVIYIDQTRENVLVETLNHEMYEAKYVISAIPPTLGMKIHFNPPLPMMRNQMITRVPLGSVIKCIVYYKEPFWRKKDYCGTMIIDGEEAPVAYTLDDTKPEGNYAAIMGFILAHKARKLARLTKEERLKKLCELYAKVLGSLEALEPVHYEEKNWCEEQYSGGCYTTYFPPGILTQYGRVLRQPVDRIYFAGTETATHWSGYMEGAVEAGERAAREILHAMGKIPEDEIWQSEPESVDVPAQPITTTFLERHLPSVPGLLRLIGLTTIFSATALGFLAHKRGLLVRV

Chain of MAO-A enzyme (P21397 whole entry): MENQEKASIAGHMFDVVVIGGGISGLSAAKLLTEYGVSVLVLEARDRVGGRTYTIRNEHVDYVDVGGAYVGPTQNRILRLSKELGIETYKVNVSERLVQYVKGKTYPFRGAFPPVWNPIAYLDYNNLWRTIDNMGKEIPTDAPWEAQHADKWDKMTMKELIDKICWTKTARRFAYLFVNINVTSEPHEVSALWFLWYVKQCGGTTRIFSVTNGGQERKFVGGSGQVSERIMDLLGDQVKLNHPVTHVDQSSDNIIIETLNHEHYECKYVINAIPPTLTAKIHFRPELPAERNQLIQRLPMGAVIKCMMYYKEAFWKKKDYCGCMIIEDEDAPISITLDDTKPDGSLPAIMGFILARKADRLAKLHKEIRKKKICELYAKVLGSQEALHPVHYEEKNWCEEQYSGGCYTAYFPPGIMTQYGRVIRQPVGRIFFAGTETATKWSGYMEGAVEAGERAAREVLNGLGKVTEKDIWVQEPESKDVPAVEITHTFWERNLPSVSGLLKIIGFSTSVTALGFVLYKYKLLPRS

Broadly, the IC50 is the concentration that inhibits the measured activity by half. In the case of `CCN1C(=O)COc2cc(NC(=O)c3cccc([C@@H]4C[C@H]4NCC4CC4)c3)ccc21` (relative stereo) [Example 149, 3-(trans-2-((cyclopropylmethyl)amino)cyclopropyl)-N-(4-ethyl-3-oxo-3,4-dihydro-2H-1,4-benzoxazin-7-yl)benzamide trifluoroacetate], the values for the half-inhibitory concentration (IC50) at human LSD1(172-833), against MAO-A enzyme and on MAO-B enzyme were below 0.1 µM, above 10 µM and above 10 µM, respectively.

`O=C(Nc1cnn(CC(F)(F)F)c1)c1cccc([C@@H]2C[C@H]2NCC2CC2)c1` (relative stereo) [Example 151, 3-(trans-2-((cyclopropylmethyl)amino)cyclopropyl)-N-(1-(2,2,2-trifluoroethyl)-1H-pyrazol-4-yl)benzamide hydrochloride]: the IC50 against human LSD1(172-833) is below 0.1 µM; against MAO-A enzyme it was above 10 µM; at MAO-B enzyme, above 10 µM.

Regarding `O=C(Nc1cnn(CC2CC2)c1)c1cccc([C@@H]2C[C@H]2NC2CCC2)c1` (relative stereo) [Example 201, 3-(trans-2-(cyclobutylamino)cyclopropyl)-N-(1-(cyclopropylmethyl)-1H-pyrazol-4-yl)benzamide dihydrochloride], the values for the IC50 against human LSD1(172-833), against MAO-A enzyme and on MAO-B enzyme were below 0.1 µM, above 10 µM and above 10 µM, respectively.

As to `CCn1cc(NC(=O)c2cccc([C@@H]3C[C@H]3NCC3CCOCC3)c2)cn1` (relative stereo) [Example 86, N-(1-ethyl-1H-pyrazol-4-yl)-3-(trans-2-((tetrahydro-2H-pyran-4-ylmethyl)amino)cyclopropyl)benzamide dihydrochloride], the IC50 at human LSD1(172-833) is below 0.1 µM; against MAO-A enzyme, above 10 µM; at MAO-B enzyme it was above 10 µM.

On to `Cc1cc(NC(=O)c2cccc([C@@H]3C[C@H]3NCC3CCOCC3)c2)on1` (relative stereo) [Example 92, N-(3-methyl-1,2-oxazol-5-yl)-3-(trans-2-((tetrahydro-2H-pyran-4-ylmethyl)amino)cyclopropyl)benzamide hydrochloride], for which the IC50 at human LSD1(172-833) was below 0.1 µM; against MAO-A enzyme it was above 10 µM; on MAO-B enzyme, above 10 µM.

Consider `CS(=O)(=O)c1ccc(NC(=O)c2cccc([C@@H]3C[C@H]3NCC3CC3)c2)cc1` (relative stereo) [Example 124, 3-(trans-2-((cyclopropylmethyl)amino)cyclopropyl)-N-(4-(methylsulfonyl)phenyl)benzamide trifluoroacetate], for which the concentration for half-maximal inhibition (IC50) against human LSD1(172-833) is below 0.1 µM; against MAO-A enzyme it was above 10 µM; at MAO-B enzyme it was above 10 µM.

For `O=C(NCc1cccc(Oc2ccccc2)c1)c1ccc([C@@H]2C[C@H]2NCC2CC2)cc1` (relative stereo) [Example 21, 4-(trans-2-((cyclopropylmethyl)amino)cyclopropyl)-N-(3-phenoxybenzyl)benzamide trifluoroacetate], the IC50 against human LSD1(172-833) was below 0.1 µM; against MAO-A enzyme, 1.8 µM; at MAO-B enzyme, above 10 µM.

Take `O=C(NCc1cccc2c1OCCO2)c1ccc([C@@H]2C[C@H]2NCC2CC2)cc1` (relative stereo) [Example 30, 4-(trans-2-((cyclopropylmethyl)amino)cyclopropyl)-N-(2,3-dihydro-1,4-benzodioxin-5-ylmethyl)benzamide trifluoroacetate]: the IC50 is below 0.1 µM at human LSD1(172-833), above 10 µM at MAO-A enzyme and above 10 µM on MAO-B enzyme.

Regarding `O=C(NCc1ccccc1)c1ccc([C@@H]2C[C@H]2NCc2cccs2)cc1` (relative stereo) [Example 46, N-benzyl-4-(trans-2-((2-thienylmethyl)amino)cyclopropyl)benzamide trifluoroacetate], the IC50 was below 0.1 µM on human LSD1(172-833), 1.8 µM on MAO-A enzyme and above 10 µM on MAO-B enzyme.

Consider `Cc1ccccc1CN[C@@H]1C[C@H]1c1ccc(C(=O)NCc2ccccc2)cc1` (relative stereo) [Example 33, N-benzyl-4-(trans-2-((2-methylbenzyl)amino)cyclopropyl)benzamide trifluoroacetate], for which the half-inhibitory concentration (IC50) against human LSD1(172-833) was below 0.1 µM; on MAO-A enzyme, above 10 µM; on MAO-B enzyme it was above 10 µM.

Regarding `O=C(Nc1cnn(CC2CC2)c1)c1cccc([C@@H]2C[C@H]2NC2CCC(F)(F)CC2)c1` (relative stereo) [Example 204, N-(1-(cyclopropylmethyl)-1H-pyrazol-4-yl)-3-(trans-2-((4,4-difluorocyclohexyl)amino)cyclopropyl)benzamide dihydrochloride], the IC50 is below 0.1 µM at human LSD1(172-833), above 10 µM at MAO-A enzyme and above 10 µM on MAO-B enzyme.

Turning to `N[C@@H]1C[C@H]1c1ccc(C(=O)Nc2cccc(C(F)(F)F)c2)cc1` (relative stereo) [Example 4, 4-(trans-2-aminocyclopropyl)-N-(3-(trifluoromethyl)phenyl)benzamide hydrochloride], the IC50 is below 0.1 µM on human LSD1(172-833), 0.19 µM on MAO-A enzyme and 0.54 µM on MAO-B enzyme.

`N[C@@H]1C[C@H]1c1ccc(C(=O)N2CCCCC2)cc1` (relative stereo) [Example 7, (4-(trans-2-aminocyclopropyl)phenyl)(piperidin-1-yl)methanone hydrochloride]: the IC50 was below 0.1 µM at human LSD1(172-833), 0.8 µM against MAO-A enzyme and above 10 µM at MAO-B enzyme.

For `O=C(Nc1cccc(C(F)(F)F)c1)c1ccc([C@@H]2C[C@H]2NC2CCS(=O)(=O)CC2)cc1` (relative stereo) [Example 62, 4-(trans-2-((1,1-dioxidotetrahydro-2H-thiopyran-4-yl)amino)cyclopropyl)-N-(3-(trifluoromethyl)phenyl)benzamide hydrochloride], the IC50 on human LSD1(172-833) is below 0.1 µM; at MAO-A enzyme, above 10 µM; on MAO-B enzyme, 4.8 µM.

Turning to `O=C(Nc1ccc2[nH]ncc2c1)c1cccc([C@@H]2C[C@H]2NCC2CC2)c1` (relative stereo) [Example 146, 3-(trans-2-((cyclopropylmethyl)amino)cyclopropyl)-N-(1H-indazol-5-yl)benzamide trifluoroacetate], the values for the half-maximal inhibitory concentration (IC50) on human LSD1(172-833), against MAO-A enzyme and on MAO-B enzyme were below 0.1 µM, above 10 µM and above 10 µM, respectively.

With `O=C(NCc1cccc(Oc2cnccn2)c1)c1ccc([C@@H]2C[C@H]2NCC2CC2)cc1` (relative stereo) [Example 29, 4-(trans-2-((cyclopropylmethyl)amino)cyclopropyl)-N-(3-(pyrazin-2-yloxy)benzyl)benzamide bis(trifluoroacetate)], the half-inhibitory concentration (IC50) on human LSD1(172-833) was below 0.1 µM; at MAO-A enzyme, 7.3 µM; at MAO-B enzyme, above 10 µM.

Consider `O=C(Nc1cnn(Cc2ccc(F)cc2)c1)c1cccc([C@@H]2C[C@H]2NC2CCOCC2)c1` (relative stereo) [Example 217, N-(1-(4-fluorobenzyl)-1H-pyrazol-4-yl)-3-(trans-2-(tetrahydro-2H-pyran-4-ylamino)cyclopropyl)benzamide dihydrochloride], for which the half-inhibitory concentration (IC50) is below 0.1 µM against human LSD1(172-833), above 10 µM at MAO-A enzyme and above 10 µM on MAO-B enzyme.

Turning to `CC(C)(C)c1ccc(CN[C@@H]2C[C@H]2c2ccc(C(=O)NCc3ccccc3)cc2)cc1` (relative stereo) [Example 31, N-benzyl-4-(trans-2-((4-tert-butylbenzyl)amino)cyclopropyl)benzamide trifluoroacetate], the figures for the IC50 at human LSD1(172-833), against MAO-A enzyme and at MAO-B enzyme were below 0.1 µM, 4 µM and above 10 µM, respectively.

Consider `O=C1COc2ccc(CN[C@@H]3C[C@H]3c3ccc(C(=O)NCc4ccccc4)cc3)cc2N1` (relative stereo) [Example 44, N-benzyl-4-(trans-2-(((3-oxo-3,4-dihydro-2H-1,4-benzoxazin-6-yl)methyl)amino)cyclopropyl)benzamide trifluoroacetate], for which the half-inhibitory concentration (IC50) at human LSD1(172-833) is below 0.1 µM; against MAO-A enzyme, 1.3 µM; at MAO-B enzyme it was above 10 µM.

Turning to `O=C(NCc1cccnc1)c1ccc([C@@H]2C[C@H]2NCC2CC2)cc1` (relative stereo) [Example 18, 4-(trans-2-((cyclopropylmethyl)amino)cyclopropyl)-N-(pyridin-3-ylmethyl)benzamide bis(trifluoroacetate)], the results for the half-inhibitory concentration (IC50) against human LSD1(172-833), on MAO-A enzyme and on MAO-B enzyme were below 0.1 µM, above 10 µM and above 10 µM, respectively.

For the compound `Cc1csc(CN[C@@H]2C[C@H]2c2ccc(C(=O)NCc3ccccc3)cc2)c1` (relative stereo) [Example 49, N-benzyl-4-(trans-2-(((4-methyl-2-thienyl)methyl)amino)cyclopropyl)benzamide trifluoroacetate], the figures for the half-inhibitory concentration (IC50) on human LSD1(172-833), against MAO-A enzyme and at MAO-B enzyme were below 0.1 µM, 1.8 µM and above 10 µM, respectively.

In the case of `O=C(NC1CCC(F)(F)CC1)c1cccc([C@@H]2C[C@H]2NC2CCN(C3CC3)CC2)c1` (relative stereo) [Example 208, 3-(trans-2-((1-cyclopropylpiperidin-4-yl)amino)cyclopropyl)-N-(4,4-difluorocyclohexyl)benzamide dihydrochloride], the IC50 at human LSD1(172-833) was below 0.1 µM; against MAO-A enzyme, above 10 µM; on MAO-B enzyme, above 10 µM.

In the case of `O=C(NCC(c1ccccc1)N1CCOCC1)c1ccc(C2CC2NCC2CC2)cc1` (stereo not drawn) [Example 24, 4-(trans-2-((cyclopropylmethyl)amino)cyclopropyl)-N-(2-(morpholin-4-yl)-2-phenylethyl)benzamide bis(trifluoroacetate)], the concentration for half-maximal inhibition (IC50) at human LSD1(172-833) is below 0.1 µM; against MAO-A enzyme, above 10 µM; at MAO-B enzyme, above 10 µM.

Turning to `N[C@@H]1C[C@H]1c1ccc(C(=O)NCc2ccccc2)cc1` (relative stereo) [Example 2, 4-(trans-2-aminocyclopropyl)-N-benzylbenzamide hydrochloride], the IC50 at human LSD1(172-833) was below 0.1 µM; on MAO-A enzyme, 0.1 µM; at MAO-B enzyme, above 10 µM.

As for `CN(Cc1ccccc1)C(=O)c1ccc([C@@H]2C[C@H]2N)cc1` (relative stereo) [Example 9, 4-(trans-2-aminocyclopropyl)-N-benzyl-N-methylbenzamide hydrochloride], the half-maximal inhibitory concentration (IC50) at human LSD1(172-833) is below 0.1 µM; at MAO-A enzyme, 0.12 µM; at MAO-B enzyme it was above 10 µM.

Values taken from patent publication US9751885B2, “Cyclopropanamine compound and use thereof” (Takeda Pharmaceutical Company Limited, priority 2012, dated 2017).
